Patent US12012467B2, “Small molecule DCN1 inhibitors and therapeutic methods using the same” (THE REGENTS OF THE UNIVERSITY OF MICHIGAN, priority 2017, dated 2024)
“Also recorded” adds a separate entry of the source. Where a name gives a salt, the structure may show the parent alone. Read-outs that look alike come from different tables or passages of the source. Square brackets hold non-standard residues; d marks the D form. Peptide text beside a SMILES is read from it. * marks the point of attachment. Ala(6-iPr-benzothiazol-2-yl) = CC(C)c1ccc2nc(C[C@H](N)C(=O)O)sc2c1; Gly(piperidin-4-yl) = N[C@H](C(=O)O)C1CCNCC1; Gly(4-THP) = N[C@H](C(=O)O)C1CCOCC1; Cha = N[C@@H](CC1CCCCC1)C(=O)O; Propionyl = CCC(=O)*

Assays:
NRF2 = test: Western blotting of NRF2 and NRF2-regulated proteins in THLE2 liver cell line; type: cell-based; conditions: for accumulation of NRF2 and NQ01 protein / abundance of NRF2 protein (cullin 3 substrate): THLE2 liver cell line; for accumulation of NRF2 and NQ01 protein: 10 μM, different time points; for abundance of NRF2 protein (cullin 3 substrate): dose-range, 24 h, western blotting
Description: (§1) A key function of cullin neddylation is to control E3 ubiquitin ligase activity of the cullin complex, which in turn regulates protein turnover in cells. DI-591 (Example 58) was evaluated for its effect on neddylation of 5 different cullins in the THLE2 liver cell line with the data shown in FIG. 1. Immortalized THLE2 liver cell line was treated by a dose-range of DCN1 inhibitor DI-591 or a dose-range of MLN4924 for 24 h. The protein levels of neddylated- and un-neddylated-cullin family proteins and several well-known substrates of cullins were examined by western blotting analysis. GAPDH was used as a loading control. […] Immunohistochemical data confirmed the increased NRF2 protein by Example 58 in liver cells.
NRF2 is a transcriptional factor and a master regulator of antioxidant responses, regulating numerous detoxifying and antioxidant genes, such as the phase II detoxification enzymes heme oxygenase (HO1) and NAD(P)H:quinone oxidoreductase-1 (NQ01) (36). DI-591 (Example 58) was compared to dimethyl fumarate (DMF) for their effect on NRF2 and NQ01 protein levels in the THLE2 liver cell line with DI-591DD included as a control with the data shown in FIG. 3. THLE2 liver cell line was treated by DI-591 at 10 μM, DI-591DD at 10 μM or DMF at 10 μM for different time points.
(§2) Immortalized liver THLE2 (ATCC® CRL-2706™) cell lines was purchased from the ATCC (Rockville, MD). The cell line was maintained in BEGM Bronchial Epithelial Cell Growth Medium from Lonza/Clonetics Corporation (CC3170, Walkersville, MD) supplemented with 10% FBS and pen-strep at 37° C. in a humidified incubator with 5% CO2. Esophageal cancer KYSE140 cell line (ACC 348) was purchased from DSMZ (Braunschweig, Germany). The cell line was maintained RPMI1640 supplemented with 10% FBS and pen-strep at 37° C. in a humidified incubator with 5% CO2.
(§3) Treated cells were lysed by RIPA buffer supplemented with protease inhibitor. The expression level of indicated proteins was examined by western blotting analysis. GAPDH was used as a loading control. Antibodies were purchased: Cullin 1 (sc-11384), Cullin2 (sc-10781), Cullin5 (sc-13014) and Cullin7 (sc-134565) from Santa Cruz Biotech. (Santa Cruz, CA); Cullin 4A (PA5-14542), Cullin 4B (PA5-35239), Cullin9 (PA5-20277), DCN2 (DCUN1D2, PA5-31607) and DCN3 (DCUN1D3, PA5-44000) from ThermoFisher Scientific (Wayne, MI); Cullin 3 (2759), NRF2 (12721), HO-1 (70081), NQ01 (3187), Cyclin E (4129), Bim (2819), Keap1 (8047) and UBC12 (4913) from Cell Signaling Technology (Boston, MA); DCN1 (GWB-E3D700) from GenWay Biotech (San Diego, CA). Results are representative of three independent experiments.

[1] = tested on: mRNA of NRF2, NQ01 and HO-1; test: qRT-PCR of NRF2 and NRF2-regulated genes in THLE2 liver cell line; type: cell-based; conditions: 10 μM, different time points
Description: FIG. 4 provides qRT-PCR analysis of mRNA levels of NRF2 and NRF2-regulated genes in the THLE2 liver cell line. […] The relative mRNA levels of NRF2, NQ01 and HO-1 were examined by quantitative real-time RT-PCR assay.

neddylation of cullin 1 = test: Western blotting of neddylated and un-neddylated cullin 1 in THLE2 liver cell line; type: cell-based; conditions: DI-591 at 10 μM or MLN4924 at 0.3 μM, 5 minutes to 24 hours
Description: (§4) DI-591 (Example 58) was further compared to MLN4924 for their ability to inhibit neddylation of cullin 1 and cullin 3 in the THLE2 liver cell line with the data shown in FIG. 2. THLE2 liver cell line was treated by DI-591 at 10 μM or MLN4924 at 0.3 μM for 5 minutes (5m), 30 minutes (30 m), 2 hours (2h) and 24 hours (24h). […] In comparison, MLN4924 inhibits the neddylation of both cullin 1 and 3.
as §2
(§5) Treated cells were lysed by RIPA buffer supplemented with protease inhibitor. The expression level of indicated proteins was examined by western blotting analysis. GAPDH was used as a loading control. Antibodies were purchased: Cullin 1 (sc-11384), Cullin2 (sc-10781), Cullin5 (sc-13014) and Cullin7 (sc-134565) from Santa Cruz Biotech. […]

neddylation of cullin 3 = test: Western blotting of neddylated and un-neddylated cullin 3 in THLE2 liver cell line; type: cell-based
Description: as §1, §4, §2, §5

Cyclin E, BimEL, CDT1 = test: Western blotting of Cul-1 and Cul-4A substrates in THLE2 liver cell line; type: cell-based; conditions: dose-range, 24 h
Description: as §1, §2, §3

DCN1 [2] = target: T1, DCN1 (Homo sapiens (Human), UniProt Q96GG9); test: FP protein saturation experiment (Kd of fluorescent probe); conditions: fluorescein-labeled probe; read-out: Binding affinity to DCN1, Kd
Description: The Fluorescence Polarization (FP) competitive binding assays were performed to accurately determine the binding affinities of our DCN1 inhibitors. A novel FAM labeled fluorescent probe compound (46) was designed and synthesized based on one of our potent small molecule DCN1 inhibitors. […] Serial dilutions of proteins were mixed with 46 to a final volume of 200 μl in the assay buffer (100 mM phosphate buffer, pH=6.5, with 0.02% Tween-20 and 2% DMSO). Final probe concentration was 5 nM for both assays. Plates were incubated at room temperature for 30 minutes with gentle shaking to assure equilibrium. FP values in millipolarization units (mP) were measured using the Infinite M-1000 plate reader (Tecan U.S., Research Triangle Park, NC) in Microfluor 1 96-well, black, round-bottom plates (Thermo Scientific, Waltham, MA) at an excitation wavelength of 485 nm and an emission wavelength of 530 nm.
Human DCN1 (residues 58-259) were cloned into a pDEST17 plasmid containing an N-terminal His6 tag. DCN2 (residues 62-259), DCN3 (residues 86-304), DCN4 (residues 102-292) and DCN5 (residues 47-237) were cloned into an N-terminal His6-TEV expression vector. Pure proteins were derived from the same expression and purification protocols. […]

DCN1 [3] = target: T1, DCN1; test: Competitive FP binding assay
Method in brief: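 FP competition with DCN1 in 100 mM phosphate pH 6.5, 0.02% Tween-20, 2% DMSO, probe 5 nM final. Equilibrated 30 min at room temperature with shaking. DCN1 was His6-tagged (uncleaved), expressed in E. coli Rosetta2 and purified by Ni-NTA and gel filtration.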

[4] = THLE2, DI-591 at 10 μM or MLN4924 at 0.3 μM, 5 minutes to 24 hours
[5] = read-out: Binding affinity to DCN1 (IC50 (nM))

T1 sequence (Q96GG9 58-259): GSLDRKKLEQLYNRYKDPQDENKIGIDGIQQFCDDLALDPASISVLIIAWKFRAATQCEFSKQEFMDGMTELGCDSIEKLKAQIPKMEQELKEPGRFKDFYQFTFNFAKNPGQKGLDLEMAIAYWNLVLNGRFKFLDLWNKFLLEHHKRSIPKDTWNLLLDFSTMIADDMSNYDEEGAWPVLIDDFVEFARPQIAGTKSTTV

SMILES: COC(=O)/C=C/C(=O)OC [Dimethyl fumarate, dimethyl fumarate, reference compound]
- accumulation of NRF2 and NQ01 protein (NRF2): stimulates the accumulation
- accumulation of NRF2 and NQ01 protein (NRF2; listed as dimethyl fumarate): stimulate the accumulation

SMILES: CCC(=O)N[C@@H](Cc1nc2ccc(C(C)C)cc2s1)C(=O)N[C@H](CNC(=O)CCN1CCOCC1)C1CCCCC1 [Example 58, (S)—N—((S)-1-cyclohexyl-2-(3-morpholinopropanamido)ethyl)-3-(6-isopropylbenzo[d]thiazol-2-yl)-2-propionamidopropanamide]
- mRNA level of NRF2 [1]: no effect
- mRNA levels of NQ01 and HO1 (NRF2-regulated genes) [1]: upregulates; also recorded: clearly increases
- neddylation of cullin 1 (neddylation of cullin 1): little effect
- neddylation of cullin 3 (neddylation of cullin 3; [4]): rapidly inhibits
- neddylation of cullin 3 (neddylation of cullin 3; THLE2 liver cell line, dose-range, 24 h): selectively and dose-dependently inhibits
- protein levels of Cyclin E, BimEL and CDT1 (substrates of Cul-1 and Cul-4A) (Cyclin E, BimEL, CDT1): no or minimal effect
- accumulation of NRF2 and NQ01 protein (NRF2): stimulate the accumulation
- abundance of NRF2 protein (cullin 3 substrate) (NRF2): induces upregulation; also recorded: selectively increased
- NRF2 protein, immunohistochemical data (NRF2; liver cells): increased

SMILES: CCC(=O)N[C@H](Cc1nc2ccc(C(C)C)cc2s1)C(=O)N[C@@H](CNC(=O)CCN1CCOCC1)C1CCCCC1 [Example 123, (R)—N—((R)-1-cyclohexyl-2-(3-morpholinopropanamido)ethyl)-3-(6-isopropylbenzo[d]thiazol-2-yl)-2-propionamidopropanamide]
- mRNA level of NRF2 [1]: no effect
- mRNA levels of NQ01 and HO1 (NRF2-regulated genes) [1]: not
- protein levels of Cyclin E, BimEL and CDT1 (substrates of Cul-1 and Cul-4A) (Cyclin E, BimEL, CDT1): no effect
- accumulation of NRF2 and NQ01 protein (NRF2): not
- abundance of NRF2 protein (cullin 3 substrate) (NRF2): no effect

SMILES: CCC(=O)N[C@@H](Cc1nc2ccc(C(C)C)cc2s1)C(=O)N[C@H](CNC(=O)C1CCN(CCOCCOCCOCCNC(=O)c2ccc3c(c2)C(=O)OC32c3ccc(O)cc3Oc3cc(O)ccc32)CC1)C1CCCCC1 [Example 127, N—((S)-2-cyclohexyl-2-((S)-3-(6-isopropylbenzo[d]thiazol-2-yl)-2-propionamidopropanamido)ethyl)-1-(1-(3′,6′-dihydroxy-3-oxo-3H-spiro [isobenzofuran-1,9′-xanthen]-5-yl)-1-oxo-5,8,11-trioxa-2-azatridecan-13-yl)piperidine-4-carboxamide]
- Kd (DCN1 [2]): 21.9 nM

SMILES: CCC(=O)N[C@@H](Cc1nc2ccc(C(C)C)cc2s1)C(=O)N[C@H](C(=O)N[C@@H](CCCCN)C(=O)N[C@@H](CC(C)C)C(N)=O)C1CCNCC1 [Example 288] (Propionyl-[Ala(6-iPr-benzothiazol-2-yl)][Gly(piperidin-4-yl)]KL-NH2)
- IC50 (DCN1 [3]; bounds given in μM, read-out: Binding affinity to DCN1 (IC50)): > 10 µM

SMILES: CCC(=O)N[C@@H](Cc1nc2ccc(C(C)C)cc2s1)C(=O)N[C@@H](CC1CCCCC1)C(=O)N[C@@H](CCCCN)C(=O)N[C@@H](CC(C)C)C(N)=O [Example 289] (Propionyl-[Ala(6-iPr-benzothiazol-2-yl)][Cha]KL-NH2)
- IC50 (DCN1 [3]; [5]): 0.138 µM

SMILES: CCC(=O)N[C@@H](Cc1nc2ccc(C(C)C)cc2s1)C(=O)N[C@@H](Cc1ccccc1)C(=O)N[C@@H](CCCCN)C(=O)N[C@@H](CC(C)C)C(N)=O [Example 290] (Propionyl-[Ala(6-iPr-benzothiazol-2-yl)]FKL-NH2)
- IC50 (DCN1 [3]; [5]): 0.0556 µM

SMILES: CCC(=O)N[C@@H](Cc1nc2ccc(C(C)C)cc2s1)C(=O)N[C@H](C(=O)N[C@@H](CCCCN)C(N)=O)C1CCCCC1 [Example 291]
- IC50 (DCN1 [3]; [5]): 0.116 µM

SMILES: CCC(=O)N[C@@H](Cc1nc2ccc(C(C)C)cc2s1)C(=O)N[C@H](C(=O)N[C@@H](CCCCN)C(=O)N[C@@H](CC(C)C)C(N)=O)C1CCOCC1 [Example 2287] (Propionyl-[Ala(6-iPr-benzothiazol-2-yl)][Gly(4-THP)]KL-NH2)
- IC50 (DCN1 [3]; [5]): 0.28 µM

SMILES: NS(=O)(=O)OC[C@@H]1C[C@@H](n2ccc3c(N[C@H]4CCc5ccccc54)ncnc32)C[C@@H]1O [MLN4924, reference compound]
- neddylation of cullin 1 (neddylation of cullin 1): inhibits
- neddylation of cullin 3 (neddylation of cullin 3; [4]): inhibits
- protein levels of Cyclin E, BimEL and CDT1 (substrates of Cul-1 and Cul-4A) (Cyclin E, BimEL, CDT1): induces accumulation
- abundance of NRF2 protein (cullin 3 substrate) (NRF2): induces accumulation
